Assay results as given in the supplement of paper PMC10307832.

Tests used:
Assay in all cases: relative viability (nuclei count vs DMSO), 5 days (fraction); higher = more cells survive
NCI-H1437 = test system: NCI-H1437
Summary of the method: (§1)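 Five library-drug doses in √10 steps were combined with a fixed anchor-drug dose, or a single drug was given alone, by pin tool to lung cancer cell lines in 1536-well plates the day after seeding. Nuclei were stained and counted after 5 days. Relative viability is the nuclei count in treated wells over that in vehicle wells, taken as the median of duplicate plates.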

NCI-H1648 = test system: NCI-H1648
Summary of the method: as §1

NCI-H1355 = test system: NCI-H1355
Summary of the method: as §1

NCI-H596 = test system: NCI-H596
Summary of the method: as §1

NCI-H2342 = test system: NCI-H2342
Summary of the method: as §1

LCLC-97TM1 = test system: LCLC-97TM1
Summary of the method: as §1

IA-LM = test system: IA-LM
Summary of the method: as §1

A549 = test system: A549
Summary of the method: as §1

NCI-H1299 = test system: NCI-H1299
Summary of the method: as §1

NCI-H1703 = test system: NCI-H1703
Summary of the method: as §1

Calu-6 = test system: Calu-6
Summary of the method: as §1

EBC-1 = test system: EBC-1
Summary of the method: as §1

In the case of `Cc1csc(=NC2CCCCC2)n1/N=C/c1ccc(O)c(O)c1O` [MIM1] + CC(=O)Nc1cccc(-n2c(=O)n(C3CC3)c(=O)c3c(Nc4ccc(I)cc4F)n(C)c(=O)c(C)c32)c1 [Trametinib] (partner 0.02 µM), the relative viability (NCI-H1437; first compound 0.2 µM) is reported as 0.454, the relative viability (NCI-H1437; first compound 0.6325 µM) is reported as 0.475 and the relative viability (NCI-H1437; first compound 2 µM) is reported as 0.456. It also gave a relative viability (NCI-H1437; first compound 6.325 µM) of 0.239, a relative viability (NCI-H1437; first compound 20 µM) of 0.237 and a relative viability (NCI-H1648; first compound 0.2 µM) of 0.419. The relative viability (NCI-H1648; first compound 0.6325 µM) was 0.439, the relative viability (NCI-H1648; first compound 2 µM) was 0.619 and the relative viability (NCI-H1648; first compound 6.325 µM) was 0.499. It also gave a relative viability (NCI-H1648; first compound 20 µM) of 0.267, a relative viability (NCI-H1355; first compound 0.2 µM) of 0.419 and a relative viability (NCI-H1355; first compound 0.6325 µM) of 0.436. It also gave a relative viability (NCI-H1355; first compound 2 µM) of 0.457, a relative viability (NCI-H1355; first compound 6.325 µM) of 0.384 and a relative viability (NCI-H1355; first compound 20 µM) of 0.375. For the same molecule, the relative viability (NCI-H596; first compound 0.2 µM) was 0.702, the relative viability (NCI-H596; first compound 0.6325 µM) was 0.95 and the relative viability (NCI-H596; first compound 2 µM) was 0.745. For the same molecule, the relative viability (NCI-H596; first compound 6.325 µM) was 0.667, the relative viability (NCI-H596; first compound 20 µM) was 0.56 and the relative viability (NCI-H2342; first compound 0.2 µM) was 0.842. The relative viability (NCI-H2342; first compound 0.6325 µM) was 0.903, the relative viability (NCI-H2342; first compound 2 µM) was 0.787 and the relative viability (NCI-H2342; first compound 6.325 µM) was 0.716. The relative viability (NCI-H2342; first compound 20 µM) was 1.1, the relative viability (LCLC-97TM1; first compound 0.2 µM) was 0.207 and the relative viability (LCLC-97TM1; first compound 0.6325 µM) was 0.218. The relative viability (LCLC-97TM1; first compound 2 µM) was 0.217, the relative viability (LCLC-97TM1; first compound 6.325 µM) was 0.196 and the relative viability (LCLC-97TM1; first compound 20 µM) was 0.0682.
`CN1CCN(CCOc2cc(OC3CCOCC3)c3c(Nc4c(Cl)ccc5c4OCO5)ncnc3c2)CC1` [Saracatinib] + C[C@]1(O)C[C@@H](c2nc(-c3ccc4ccc(-c5ccccc5)nc4c3)c3c(N)nccn32)C1 [Linsitinib] (partner 1 µM) gave a relative viability (IA-LM; first compound 0.02 µM) of 0.682, a relative viability (IA-LM; first compound 0.2 µM) of 0.838 and a relative viability (IA-LM; first compound 0.6325 µM) of 1.43. The relative viability (IA-LM; first compound 2 µM) was 0.815, the relative viability (A549; first compound 0.02 µM) was 0.564 and the relative viability (A549; first compound 0.2 µM) was 0.566. The relative viability (A549; first compound 0.6325 µM) was 0.638, the relative viability (A549; first compound 2 µM) was 0.357 and the relative viability (NCI-H1299; first compound 0.02 µM) was 0.992. For the same molecule, the relative viability (NCI-H1299; first compound 0.2 µM) was 0.791, the relative viability (NCI-H1299; first compound 0.6325 µM) was 0.979 and the relative viability (NCI-H1299; first compound 2 µM) was 0.655. For the same molecule, the relative viability (NCI-H1437; first compound 0.02 µM) was 1.04, the relative viability (NCI-H1437; first compound 0.2 µM) was 0.985 and the relative viability (NCI-H1437; first compound 0.6325 µM) was 0.981. For the same molecule, the relative viability (NCI-H1437; first compound 2 µM) was 1.09, the relative viability (NCI-H1355; first compound 0.02 µM) was 0.793 and the relative viability (NCI-H1355; first compound 0.2 µM) was 0.767. It also gave a relative viability (NCI-H1355; first compound 0.6325 µM) of 0.832, a relative viability (NCI-H1355; first compound 2 µM) of 0.615 and a relative viability (NCI-H1703; first compound 0.02 µM) of 1.02. It also gave a relative viability (NCI-H1703; first compound 0.2 µM) of 0.738, a relative viability (NCI-H1703; first compound 0.6325 µM) of 0.513 and a relative viability (NCI-H1703; first compound 2 µM) of 0.35. It also gave a relative viability (NCI-H596; first compound 0.02 µM) of 1.01, a relative viability (NCI-H596; first compound 0.2 µM) of 0.85 and a relative viability (NCI-H596; first compound 0.6325 µM) of 0.877. For the same molecule, the relative viability (NCI-H596; first compound 2 µM) was 0.737, the relative viability (LCLC-97TM1; first compound 0.02 µM) was 0.17 and the relative viability (LCLC-97TM1; first compound 0.2 µM) was 0.127. For the same molecule, the relative viability (LCLC-97TM1; first compound 0.6325 µM) was 0.197, the relative viability (LCLC-97TM1; first compound 2 µM) was 0.272 and the relative viability (Calu-6; first compound 0.02 µM) was 0.95. For the same molecule, the relative viability (Calu-6; first compound 0.2 µM) was 0.824, the relative viability (Calu-6; first compound 0.6325 µM) was 0.906 and the relative viability (Calu-6; first compound 2 µM) was 0.68. For the same molecule, the relative viability (EBC-1; first compound 0.02 µM) was 0.94, the relative viability (EBC-1; first compound 0.2 µM) was 0.771 and the relative viability (EBC-1; first compound 0.6325 µM) was 1.07. For the same molecule, the relative viability (EBC-1; first compound 2 µM) was 0.982.
In the case of `Nc1cccc2c1CN(C1CCC(=O)NC1=O)C2=O` (centres undefined) [Lenalidomide] + Cc1nc(NC(=O)N2CCC[C@H]2C(N)=O)sc1-c1ccnc(C(C)(C)C(F)(F)F)c1 [Alpelisib] (partner 2 µM), the relative viability (IA-LM; first compound 0.253 µM) is reported as 0.716, the relative viability (IA-LM; first compound 0.8 µM) is reported as 0.735 and the relative viability (IA-LM; first compound 2.53 µM) is reported as 0.797. It also gave a relative viability (IA-LM; first compound 8 µM) of 0.75, a relative viability (A549; first compound 0.253 µM) of 0.789 and a relative viability (A549; first compound 0.8 µM) of 0.765. The relative viability (A549; first compound 2.53 µM) was 0.813, the relative viability (A549; first compound 8 µM) was 0.702 and the relative viability (NCI-H1299; first compound 0.253 µM) was 1.03. The relative viability (NCI-H1299; first compound 0.8 µM) was 1.1, the relative viability (NCI-H1299; first compound 2.53 µM) was 1.06 and the relative viability (NCI-H1299; first compound 8 µM) was 1.09. For the same molecule, the relative viability (NCI-H1437; first compound 0.253 µM) was 1.01, the relative viability (NCI-H1437; first compound 0.8 µM) was 1.03 and the relative viability (NCI-H1437; first compound 2.53 µM) was 1.09. For the same molecule, the relative viability (NCI-H1437; first compound 8 µM) was 1, the relative viability (NCI-H1355; first compound 0.253 µM) was 0.806 and the relative viability (NCI-H1355; first compound 0.8 µM) was 0.645. It also gave a relative viability (NCI-H1355; first compound 2.53 µM) of 0.848, a relative viability (NCI-H1355; first compound 8 µM) of 0.454 and a relative viability (NCI-H1703; first compound 0.253 µM) of 0.253. It also gave a relative viability (NCI-H1703; first compound 0.8 µM) of 0.276, a relative viability (NCI-H1703; first compound 2.53 µM) of 0.366 and a relative viability (NCI-H1703; first compound 8 µM) of 0.354. The relative viability (NCI-H596; first compound 0.253 µM) was 0.574, the relative viability (NCI-H596; first compound 0.8 µM) was 0.452 and the relative viability (NCI-H596; first compound 2.53 µM) was 0.481. For the same molecule, the relative viability (NCI-H596; first compound 8 µM) was 0.497, the relative viability (LCLC-97TM1; first compound 0.8 µM) was 0.236 and the relative viability (LCLC-97TM1; first compound 2.53 µM) was 0.308. It also gave a relative viability (LCLC-97TM1; first compound 8 µM) of 0.164, a relative viability (Calu-6; first compound 0.253 µM) of 0.945 and a relative viability (Calu-6; first compound 0.8 µM) of 0.946. The relative viability (Calu-6; first compound 2.53 µM) was 1.08, the relative viability (Calu-6; first compound 8 µM) was 1.02 and the relative viability (EBC-1; first compound 0.253 µM) was 0.787. The relative viability (EBC-1; first compound 0.8 µM) was 0.798, the relative viability (EBC-1; first compound 2.53 µM) was 0.907 and the relative viability (EBC-1; first compound 8 µM) was 1.01.
